Source: patent US10894837B2, “MMP9 inhibitors and uses thereof in the prevention or treatment of a depigmenting disorder” (UNIVERSITE DE BORDEAUX, priority 2016, dated 2021)

Columns and labels:
Assay type in all cases: cell-based
[1] = tested on: MMP9; assay: MMP9 levels by ELISA in cell-free supernatants of reconstructed human pigmented epidermis treated with TNFα and IFNγ; conditions: 24 h, 10 ng/ml TNFα and IFNγ, 1 μM and 10 μM inhibitor, ELISA in cell-free supernatants (FIG. 13B)
Experimental: (§1) Reconstructed human pigmented epidermis were treated 24 h with or without 10 ng/ml of TNFα and IFNγ in the presence or absence of 1 μM and 10 μM of MMP9 inhibitors ab142180 or SB-CT. (A) Real-time PCR analysis of MMP9 gene expression. Results are expressed as a fold increase above control culture. GAPDH was used as a housekeeping gene. (B) Measurement of MMP9 levels by ELISA in cell-free supernatants.
(§2) As discussed above, TNFα and IFNγ induce MMP9 gene expression in melanocyte. Inventors used two commercially available synthetic MMP9 inhibitors, SB3CT (a […]) and a selective MMP9 inhibitor (ab142180), to assess whether such inhibition could inhibit TNFα and IFNγ effects on depigmentation. In vitro reconstructed human epidermis containing melanocytes were stimulated with these two cytokines in the presence or absence of the two different MMP9 inhibitors for 24 h (FIG. 5). The combination of TNFα and IFNγ induced melanocyte detachment and E-cadherin inhibition.
After 10 days of reconstruction (D10), reconstructed human pigmented epidermis (RHEm) are placed in 6 wells plate (NUNC reference 140675) in 2 ml of culture medium without hydrocortisone to which 10 ng/ml of interferon (IFN)-γ (R&D systems) and 10 ng/ml of “tumor necrosis factor (TNF)-α” (R&D systems) are added. A control condition without cytokines addition is performed. Each experimental condition is performed in duplicate or triplicate.

[2] = tested on: Reconstructed human epidermis containing melanocytes; assay: TNFα and IFNγ-induced melanocyte detachment in reconstructed human epidermis, immunofluorescence of melan-A and E-cadherin; conditions: 24 h, 20 ng/ml TNFα and IFNγ, 10 μM inhibitor (FIG. 5)
Experimental: Reconstructed human epidermis containing melanocytes were stimulated 24 h with or without 20 ng/ml of TNFα and IFNγ in the presence or absence of 10 μM of MMP9 inhibitor ab142180 or SB-CT. Immunofluorescence microscopy analysis of melan-A (red) and E-cadherin (green) expression, Magnification 400×. White arrows show melanocytes that are detached from the basal layer of the epidermis.
as §2
Pigmented epidermis (RHEm) are reconstructed from normal human keratinocytes (NHEK) and from normal human melanocytes (NHEM), previously isolated from preputial samples. […]
Then reading with a fluorescence microscope for the analysis of melanocytes detachment.

[3] = tested on: MMP9 gene expression; assay: Real-time PCR analysis of MMP9 gene expression in reconstructed human pigmented epidermis treated with TNFα and IFNγ; conditions: 24 h, 10 ng/ml TNFα and IFNγ, 1 μM and 10 μM inhibitor, real-time PCR (FIG. 13A)
Experimental: as §1, §2
After 10 days of reconstruction (D10), reconstructed human pigmented epidermis (RHEm) are placed in 6 wells plate (NUNC reference 140675) in 2 ml of culture medium without hydrocortisone to which 10 ng/ml of interferon (IFN)-γ (R&D systems) and 10 ng/ml of “tumor necrosis factor (TNF)-α” (R&D systems) are added. A control condition without cytokines addition is performed. […]

CCN(CC)Cc1cc(C)c(N(Cc2ccccc2)S(=O)(=O)c2ccc(OC)cc2)c(C(=O)NO)c1 [ab142180, 2-(N-benzyl-4-methoxyphenylsulfonamido)-5-((diethylamino)methyl)-N-hydroxy-3-methylbenzamide]
MMP9 expression induced by the combination of IFNγ and TNFα, protein level (MMP9 production) [1]: reduced
TNFα and IFNγ-induced melanocyte detachment and E-cadherin inhibition [2]: strongly inhibited
MMP9 expression induced by the combination of IFNγ and TNFα, gene level [3]: reduced

O=S(=O)(CC1CS1)c1ccc(Oc2ccccc2)cc1 (stereo not shown) [SB3CT, 2-[[(4-phenoxyphenyl)sulfonyl]methyl]-Thiirane]
MMP9 expression induced by the combination of IFNγ and TNFα, protein level (MMP9 production) [1]: reduced
MMP9 expression induced by the combination of IFNγ and TNFα, protein level (MMP9 production) ([1]; listed as SB-CT): reduces
TNFα and IFNγ-induced melanocyte detachment and E-cadherin inhibition [2]: strongly inhibited
MMP9 expression induced by the combination of IFNγ and TNFα, gene level [3]: reduced
